Laboratory results taken from ChEMBL document CHEMBL4507326, “Data for DCP probe TP-030-2” (2021).

What was measured:
[1] = GPCRScan assay: inhibition of GABA/PBR; design: species or system Rattus norvegicus; radioligand conc. used [nm] 0.3 – 2.0, parental cells brain tissue
[2] = target: Citron Rho-interacting kinase (Homo sapiens, UniProt O14578); test: CRIK(CIT1LGY1) Takeda global kinase panel
[3] = target: Phosphorylase b kinase gamma catalytic chain, skeletal muscle/heart isoform (Homo sapiens, UniProt Q16816); test: PhKgamma1(PHG1LHY1) Takeda global kinase panel
[4] = target: Tyrosine-protein kinase Mer (Homo sapiens, UniProt Q12866); test: Mer(MERTLGF1) Takeda global kinase panel
[5] = target: Dual specificity protein kinase CLK3 (Homo sapiens, UniProt P49761); test: CLK3(CLK3LGY1) Takeda global kinase panel
[6] = target: Cysteinyl leukotriene receptor 1 (Homo sapiens) (UniProt Q9Y271); test: Inhibition of Leukotriene, Cysteinyl CysLT1 at 10 µM in the Eurofins-Panlabs radioligand binding assay (Eurofins_assay_250460); design: ligand concentration 0.3 nM, non-specific ligand with concentration 0.3 µM Leukotriene D4, incubation time 30 min, incubation temperature 25 °C; conditions: Compound concentration 10.0 uM
[7] = target: Cyclin-dependent kinase 14 (Homo sapiens, UniProt O94921); test: PFTAIRE1(CD14CGS1) Takeda global kinase panel
[8] = target: Acetylcholine receptor subunit alpha (Homo sapiens) (UniProt P02708); test: Inhibition of Nicotinic Acetylcholine D1, Bungarotoxin at 10 µM in the Eurofins-Panlabs radioligand binding assay (Eurofins_assay_258700); conditions: Compound concentration 10.0 uM
[9] = target: Glutamate receptor ionotropic, kainate (Rattus norvegicus) (UniProt P22756+Q01812+P42260+P42264+Q63273); conditions: Compound concentration 10.0 uM
[10] = target: D(3) dopamine receptor (Homo sapiens) (UniProt P35462); conditions: Compound concentration 10.0 uM
[11] = target: Phosphatidylinositol 4,5-bisphosphate 3-kinase catalytic subunit alpha isoform (Homo sapiens, UniProt P42336); test: PI3KCA(PI3ACGR1) Takeda global kinase panel
[12] = target: Protein kinase C beta type (Homo sapiens, UniProt P05771); test: PKCbeta(PRKBPHY3) Takeda global kinase panel
[13] = target: Vascular endothelial growth factor receptor 1 (Homo sapiens, UniProt P17948); test: FLT1(FLT1LGC5) Takeda global kinase panel
[14] = target: Tyrosine-protein kinase Blk (Homo sapiens, UniProt P51451); test: BLK(BLK1CGF1) Takeda global kinase panel
[15] = target: Beta-2 adrenergic receptor (Homo sapiens) (UniProt P07550); conditions: Compound concentration 10.0 uM
[16] = target: Muscarinic acetylcholine receptor M2 (Homo sapiens) (UniProt P08172); conditions: Compound concentration 10.0 uM
[17] = target: Serine/threonine-protein kinase Nek8 (Homo sapiens, UniProt Q86SG6); test: Nek8(NEK8LGRI) Takeda global kinase panel
[18] = target: Muscarinic acetylcholine receptor M1 (Homo sapiens) (UniProt P11229); conditions: Compound concentration 10.0 uM
[19] = target: Muscarinic acetylcholine receptor M5 (Homo sapiens) (UniProt P08912); conditions: Compound concentration 10.0 uM
[20] = target: Serine/threonine-protein kinase SIK1 (Homo sapiens, UniProt P57059); test: SIK(SIK1LHY1) Takeda global kinase panel
[21] = target: Cyclin-dependent kinase 13 (Homo sapiens, UniProt Q14004); test: CHED(CD13PHS1) Takeda global kinase panel
[22] = target: Eukaryotic translation initiation factor 2-alpha kinase 3 (Homo sapiens, UniProt Q9NZJ5); test: PERK [PEK(EIK3CGQ1)] Takeda global kinase panel
[23] = target: G protein-coupled receptor kinase 4 (Homo sapiens, UniProt P32298); test: GRK4(GRK4LGRI) Takeda global kinase panel
[24] = target: Cyclin-dependent kinase 12 (Homo sapiens, UniProt Q9NYV4); test: CRK7(CD12PHS1) Takeda global kinase panel
[25] = target: Casein kinase I isoform gamma-3 (Homo sapiens, UniProt Q9Y6M4); test: CK1gamma3(C1G3LGI5) Takeda global kinase panel
[26] = target: Serine/threonine-protein kinase PAK 4 (Homo sapiens, UniProt O96013); test: PAK4(PAK4CGY1) Takeda global kinase panel
[27] = target: Mitogen-activated protein kinase kinase kinase 7 (Homo sapiens, UniProt O43318); test: TAK1(M3K7CHY1) Takeda global kinase panel
[28] = target: 5-hydroxytryptamine receptor 1B (Homo sapiens) (UniProt P28222); conditions: Compound concentration 10.0 uM
[29] = target: Serine/threonine-protein kinase D1 (Homo sapiens, UniProt Q15139); test: PKD1(PRD1LHY1) Takeda global kinase panel
[30] = target: Death-associated protein kinase 3 (Homo sapiens, UniProt O43293); test: DAPK3(DAP3LGP1) Takeda global kinase panel
SRSF protein kinase 2 = SRSF protein kinase 2 (Homo sapiens, UniProt P78362); test: SRPK2(SRP2IGRL) Takeda global kinase panel
[31] = target: B2 bradykinin receptor (Homo sapiens) (UniProt P30411); conditions: Compound concentration 10.0 uM
[32] = target: GABA-A receptor; anion channel (Rattus norvegicus) (UniProt O09028+P15431+P18506+P18508+P19969+P20236+P23574+P23576+P28471+P28473+P30191+P62813+P63079+P63138+Q91ZM7+Q9ES14); conditions: Compound concentration 10.0 uM
[33] = target: D(2) dopamine receptor (Homo sapiens) (UniProt P14416); conditions: Compound concentration 10.0 uM
[34] = target: Tyrosine-protein kinase SYK (Homo sapiens, UniProt P43405); test: Syk(SYK1LHY1) Takeda global kinase panel
[35] = target: Serine/threonine-protein kinase 3 (Homo sapiens, UniProt Q13188); test: MST2(STK3LGF1) Takeda global kinase panel
Rattus norvegicus = species: Rattus norvegicus; conditions: Compound concentration 10.0 uM
[36] = target: Serine/threonine-protein kinase 32B (Homo sapiens, UniProt Q9NY57); test: YANK2(S32BLGY2) Takeda global kinase panel
[37] = target: Mitogen-activated protein kinase 8 (Homo sapiens, UniProt P45983); test: JNK1(MAP8LGF1) Takeda global kinase panel
[38] = target: Interleukin-1 receptor-associated kinase 3 (Homo sapiens, UniProt Q9Y616); test: IRAK3(IRK3PFE1) Takeda global kinase panel
[39] = target: PAS domain-containing serine/threonine-protein kinase (Homo sapiens, UniProt Q96RG2); test: PASK(PASKPHY1) Takeda global kinase panel
LIM domain kinase 2 = LIM domain kinase 2 (Homo sapiens, UniProt P53671); test: LIMK2(LIM2LGV1) Takeda global kinase panel
[40] = target: Tyrosine-protein kinase FRK (Homo sapiens, UniProt P42685); test: FRK(FRK1LGF1) Takeda global kinase panel
[41] = target: Beta-1 adrenergic receptor (Homo sapiens) (UniProt P08588); conditions: Compound concentration 10.0 uM

Serine/threonine-protein kinase 3, sequence (Q13188 whole entry): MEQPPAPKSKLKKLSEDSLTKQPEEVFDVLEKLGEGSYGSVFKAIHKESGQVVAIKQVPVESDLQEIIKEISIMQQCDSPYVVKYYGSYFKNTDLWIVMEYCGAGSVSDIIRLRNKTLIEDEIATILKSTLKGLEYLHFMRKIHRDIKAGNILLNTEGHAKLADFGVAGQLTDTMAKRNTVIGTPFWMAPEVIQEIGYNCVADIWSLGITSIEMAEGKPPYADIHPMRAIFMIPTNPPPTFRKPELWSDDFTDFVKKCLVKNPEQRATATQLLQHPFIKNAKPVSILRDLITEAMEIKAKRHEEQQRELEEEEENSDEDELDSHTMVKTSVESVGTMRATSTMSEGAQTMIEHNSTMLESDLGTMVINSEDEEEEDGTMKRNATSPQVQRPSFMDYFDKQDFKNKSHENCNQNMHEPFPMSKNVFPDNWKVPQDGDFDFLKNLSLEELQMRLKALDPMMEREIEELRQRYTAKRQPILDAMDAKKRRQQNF
Tyrosine-protein kinase Blk, sequence (P51451 whole entry): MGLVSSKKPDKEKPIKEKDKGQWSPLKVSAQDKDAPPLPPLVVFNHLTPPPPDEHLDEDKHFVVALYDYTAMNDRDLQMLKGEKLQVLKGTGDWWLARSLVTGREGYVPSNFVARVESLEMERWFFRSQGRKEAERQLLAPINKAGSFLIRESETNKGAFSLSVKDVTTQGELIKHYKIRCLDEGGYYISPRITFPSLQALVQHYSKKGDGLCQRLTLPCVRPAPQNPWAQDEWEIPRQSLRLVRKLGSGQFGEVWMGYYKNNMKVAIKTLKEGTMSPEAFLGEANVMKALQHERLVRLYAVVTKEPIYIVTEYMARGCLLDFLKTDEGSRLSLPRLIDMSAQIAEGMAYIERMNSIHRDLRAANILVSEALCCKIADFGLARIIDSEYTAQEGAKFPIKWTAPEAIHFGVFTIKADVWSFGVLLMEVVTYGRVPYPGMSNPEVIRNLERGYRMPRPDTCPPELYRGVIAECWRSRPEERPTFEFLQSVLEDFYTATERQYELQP
Serine/threonine-protein kinase D1, sequence (Q15139 whole entry): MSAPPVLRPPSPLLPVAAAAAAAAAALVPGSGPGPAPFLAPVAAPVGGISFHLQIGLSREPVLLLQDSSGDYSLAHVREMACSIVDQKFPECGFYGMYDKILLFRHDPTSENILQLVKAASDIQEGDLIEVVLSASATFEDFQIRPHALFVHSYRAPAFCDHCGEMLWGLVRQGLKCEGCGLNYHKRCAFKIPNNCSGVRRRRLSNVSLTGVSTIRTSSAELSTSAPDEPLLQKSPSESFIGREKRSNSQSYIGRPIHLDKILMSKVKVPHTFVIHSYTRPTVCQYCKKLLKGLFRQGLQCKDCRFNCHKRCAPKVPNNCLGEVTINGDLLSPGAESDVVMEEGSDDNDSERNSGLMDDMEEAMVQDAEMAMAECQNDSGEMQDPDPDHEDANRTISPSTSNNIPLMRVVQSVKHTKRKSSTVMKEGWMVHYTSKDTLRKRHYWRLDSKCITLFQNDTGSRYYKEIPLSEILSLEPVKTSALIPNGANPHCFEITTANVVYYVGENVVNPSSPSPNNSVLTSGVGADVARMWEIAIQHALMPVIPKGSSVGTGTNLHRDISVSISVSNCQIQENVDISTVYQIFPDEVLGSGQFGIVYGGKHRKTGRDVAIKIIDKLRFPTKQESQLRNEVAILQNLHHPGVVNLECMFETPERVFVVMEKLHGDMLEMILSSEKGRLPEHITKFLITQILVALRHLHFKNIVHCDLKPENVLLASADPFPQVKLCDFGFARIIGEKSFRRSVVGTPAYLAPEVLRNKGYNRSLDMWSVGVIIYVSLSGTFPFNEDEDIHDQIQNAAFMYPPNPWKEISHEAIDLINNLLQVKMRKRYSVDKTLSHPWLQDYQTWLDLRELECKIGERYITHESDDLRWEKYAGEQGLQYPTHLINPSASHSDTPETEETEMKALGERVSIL
Eukaryotic translation initiation factor 2-alpha kinase 3, sequence (Q9NZJ5 whole entry): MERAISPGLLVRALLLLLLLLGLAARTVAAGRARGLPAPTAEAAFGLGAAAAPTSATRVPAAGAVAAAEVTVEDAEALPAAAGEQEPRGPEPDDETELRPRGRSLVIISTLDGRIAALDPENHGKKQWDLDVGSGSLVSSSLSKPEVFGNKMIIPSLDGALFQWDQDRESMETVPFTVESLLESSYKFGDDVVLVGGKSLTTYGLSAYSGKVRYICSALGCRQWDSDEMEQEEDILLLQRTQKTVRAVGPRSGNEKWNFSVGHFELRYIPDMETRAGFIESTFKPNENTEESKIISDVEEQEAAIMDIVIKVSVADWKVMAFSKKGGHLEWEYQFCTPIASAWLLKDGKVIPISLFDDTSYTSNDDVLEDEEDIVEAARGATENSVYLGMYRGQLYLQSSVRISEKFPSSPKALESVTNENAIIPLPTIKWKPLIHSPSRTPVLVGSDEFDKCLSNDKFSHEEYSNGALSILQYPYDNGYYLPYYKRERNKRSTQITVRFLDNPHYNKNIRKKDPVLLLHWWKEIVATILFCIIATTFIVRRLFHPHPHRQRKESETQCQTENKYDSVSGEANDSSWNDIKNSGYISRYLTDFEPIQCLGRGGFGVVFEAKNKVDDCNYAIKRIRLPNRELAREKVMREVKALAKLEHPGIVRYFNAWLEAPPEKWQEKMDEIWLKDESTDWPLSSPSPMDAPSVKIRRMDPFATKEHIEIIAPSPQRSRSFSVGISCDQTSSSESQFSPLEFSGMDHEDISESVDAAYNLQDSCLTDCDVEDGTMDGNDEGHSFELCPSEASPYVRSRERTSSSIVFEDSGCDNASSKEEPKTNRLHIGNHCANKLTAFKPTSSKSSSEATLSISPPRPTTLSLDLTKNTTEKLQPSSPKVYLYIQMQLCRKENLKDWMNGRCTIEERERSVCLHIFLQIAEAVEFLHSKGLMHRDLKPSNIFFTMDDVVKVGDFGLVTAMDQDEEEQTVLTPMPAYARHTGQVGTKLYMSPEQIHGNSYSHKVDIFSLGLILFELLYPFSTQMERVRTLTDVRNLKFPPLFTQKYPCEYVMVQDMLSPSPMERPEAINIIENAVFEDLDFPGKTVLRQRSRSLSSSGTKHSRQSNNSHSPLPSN
Mitogen-activated protein kinase kinase kinase 7, sequence (O43318 whole entry): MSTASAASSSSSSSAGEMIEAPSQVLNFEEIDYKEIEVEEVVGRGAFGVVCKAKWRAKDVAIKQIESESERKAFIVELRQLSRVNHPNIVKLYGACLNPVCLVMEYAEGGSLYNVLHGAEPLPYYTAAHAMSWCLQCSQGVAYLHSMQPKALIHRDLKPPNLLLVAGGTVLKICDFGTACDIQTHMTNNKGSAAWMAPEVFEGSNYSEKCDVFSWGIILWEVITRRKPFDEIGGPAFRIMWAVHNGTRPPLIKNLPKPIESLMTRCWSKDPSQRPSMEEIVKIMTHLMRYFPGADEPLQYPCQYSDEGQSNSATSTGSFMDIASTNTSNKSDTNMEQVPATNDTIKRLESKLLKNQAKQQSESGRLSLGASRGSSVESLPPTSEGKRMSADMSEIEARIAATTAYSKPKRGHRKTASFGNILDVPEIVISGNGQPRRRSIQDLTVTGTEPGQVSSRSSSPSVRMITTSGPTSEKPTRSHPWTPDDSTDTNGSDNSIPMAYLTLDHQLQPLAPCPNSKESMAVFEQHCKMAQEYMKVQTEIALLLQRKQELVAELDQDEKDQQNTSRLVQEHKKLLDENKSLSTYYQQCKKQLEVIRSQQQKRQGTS
Tyrosine-protein kinase FRK, sequence (P42685 whole entry): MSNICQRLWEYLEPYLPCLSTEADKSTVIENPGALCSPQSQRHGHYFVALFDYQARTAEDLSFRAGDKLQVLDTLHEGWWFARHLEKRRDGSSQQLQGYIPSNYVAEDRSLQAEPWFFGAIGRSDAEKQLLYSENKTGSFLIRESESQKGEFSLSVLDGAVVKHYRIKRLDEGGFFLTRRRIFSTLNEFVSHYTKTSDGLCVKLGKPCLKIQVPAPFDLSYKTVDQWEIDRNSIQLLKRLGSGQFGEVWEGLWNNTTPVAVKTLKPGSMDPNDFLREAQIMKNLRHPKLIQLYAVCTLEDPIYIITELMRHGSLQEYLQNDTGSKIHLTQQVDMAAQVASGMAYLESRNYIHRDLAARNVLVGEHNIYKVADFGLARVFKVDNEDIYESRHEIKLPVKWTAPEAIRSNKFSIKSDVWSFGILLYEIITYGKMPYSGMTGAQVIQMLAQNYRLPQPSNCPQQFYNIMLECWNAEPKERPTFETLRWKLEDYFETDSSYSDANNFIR
Death-associated protein kinase 3, sequence (O43293 whole entry): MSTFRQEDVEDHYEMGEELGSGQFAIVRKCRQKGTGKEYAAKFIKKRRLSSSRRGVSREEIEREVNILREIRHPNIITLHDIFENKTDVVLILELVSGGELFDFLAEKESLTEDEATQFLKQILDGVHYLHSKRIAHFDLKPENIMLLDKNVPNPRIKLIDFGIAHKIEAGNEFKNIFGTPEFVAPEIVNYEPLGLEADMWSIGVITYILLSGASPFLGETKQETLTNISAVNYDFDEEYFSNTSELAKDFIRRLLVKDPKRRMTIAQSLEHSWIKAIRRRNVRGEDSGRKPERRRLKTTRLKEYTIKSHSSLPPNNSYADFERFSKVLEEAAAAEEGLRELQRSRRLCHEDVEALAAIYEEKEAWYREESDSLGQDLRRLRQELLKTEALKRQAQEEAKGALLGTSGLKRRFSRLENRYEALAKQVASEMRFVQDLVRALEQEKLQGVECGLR
Acetylcholine receptor subunit alpha (Homo sapiens), sequence (P02708 whole entry): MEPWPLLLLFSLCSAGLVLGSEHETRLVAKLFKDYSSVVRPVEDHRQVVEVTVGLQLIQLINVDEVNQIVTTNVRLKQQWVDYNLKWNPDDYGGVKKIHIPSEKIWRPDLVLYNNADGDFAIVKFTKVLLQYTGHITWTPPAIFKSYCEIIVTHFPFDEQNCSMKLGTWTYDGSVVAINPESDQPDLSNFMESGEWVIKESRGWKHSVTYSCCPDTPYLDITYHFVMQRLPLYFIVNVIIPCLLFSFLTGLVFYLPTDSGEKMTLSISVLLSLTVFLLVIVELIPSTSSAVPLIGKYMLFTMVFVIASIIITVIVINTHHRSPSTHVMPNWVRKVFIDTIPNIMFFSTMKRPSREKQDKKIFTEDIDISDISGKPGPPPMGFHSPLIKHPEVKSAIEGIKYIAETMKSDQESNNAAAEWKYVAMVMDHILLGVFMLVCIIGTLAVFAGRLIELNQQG

CN1C(=O)[C@@H](N2CCc3c(nn(Cc4ccccc4)c3Br)C2=O)COc2ccccc21 [TP-030-2]
Ki [1]: 347 nM | pKi [1]: 6.465 | IC50 [2]: 1000 nM | IC50 [3]: 1000 nM | IC50 [4]: 1000 nM | IC50 [5]: 1000 nM | inhibition [6]: 5% | IC50 [7]: 1000 nM | inhibition [8]: -2% | inhibition [9]: 5% | inhibition [10]: 3.31% | IC50 [11]: 1000 nM | IC50 [12]: 1000 nM | IC50 [13]: 1000 nM | IC50 [14]: 1000 nM | inhibition [15]: -4% | inhibition [16]: 2% | IC50 [17]: 1000 nM | inhibition [18]: -4% | inhibition [19]: 9.18% | IC50 [20]: 1000 nM | IC50 [21]: 1000 nM | IC50 [22]: 1000 nM | IC50 [23]: 1000 nM | IC50 [24]: 1000 nM | IC50 [25]: 1000 nM | IC50 [26]: 1000 nM | IC50 [27]: 1000 nM | inhibition [28]: -3.35% | IC50 [29]: 1000 nM | IC50 [30]: 1000 nM | IC50 (SRSF protein kinase 2): 1000 nM | inhibition [31]: 0% | inhibition [32]: 8.81% | inhibition [33]: -5.95% | IC50 [34]: 1000 nM | IC50 [35]: 1000 nM | inhibition (Rattus norvegicus): 82.2% | IC50 [36]: 1000 nM | IC50 [37]: 1000 nM | IC50 [38]: 1000 nM | IC50 [39]: 1000 nM | IC50 (LIM domain kinase 2): 1000 nM | IC50 [40]: 1000 nM | inhibition [41]: -4%
